Data from patent publication US6855730B2, “3-methylidenyl-2-indolinone modulators of protein kinase” (Sugen, Inc., priority 1998, dated 2005).

Tests used:
Format in all cases: cell-based
[1] = molecular target: T1, chimeric receptor containing the EGFR extracellular domain and intracellular HER2 kinase domain (Homo sapiens, UniProt P04626); assay: EGF Receptor-HER2 chimeric receptor assay in whole cells (ELISA); conditions: read-out: HER-2 kinase IC50
T1 construct: fused on or other part: EGFR ectodomain + HER2 intracellular part, ATP-site indolinones: HER2's kinase
Outline: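 NIH3T3 cells overexpressing EGFR-extracellular/HER2-kinase chimera, seeded in 0.5% serum for ~40 h, were pretreated with compound (1% final DMSO) 2 h at 37 °C, then stimulated with 100 nM EGF for 5 min. Lysates captured on anti-EGFR plates; phosphotyrosine detected by anti-Ptyr/HRP ELISA at 410 nm as percent inhibition.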

SKOV3 cells = assay: SKOV3 growth assay (2% FBS); conditions: Homo sapiens, SK-OV-3, read-out: SKOV3 growth (2% FBS) IC50
A431 cells = assay: A431 growth assay (2% FBS); conditions: Homo sapiens, A-431, read-out: A431 growth (2% FBS) IC50

T1 sequence (P04626 720-1255 limits assumed, change not shown): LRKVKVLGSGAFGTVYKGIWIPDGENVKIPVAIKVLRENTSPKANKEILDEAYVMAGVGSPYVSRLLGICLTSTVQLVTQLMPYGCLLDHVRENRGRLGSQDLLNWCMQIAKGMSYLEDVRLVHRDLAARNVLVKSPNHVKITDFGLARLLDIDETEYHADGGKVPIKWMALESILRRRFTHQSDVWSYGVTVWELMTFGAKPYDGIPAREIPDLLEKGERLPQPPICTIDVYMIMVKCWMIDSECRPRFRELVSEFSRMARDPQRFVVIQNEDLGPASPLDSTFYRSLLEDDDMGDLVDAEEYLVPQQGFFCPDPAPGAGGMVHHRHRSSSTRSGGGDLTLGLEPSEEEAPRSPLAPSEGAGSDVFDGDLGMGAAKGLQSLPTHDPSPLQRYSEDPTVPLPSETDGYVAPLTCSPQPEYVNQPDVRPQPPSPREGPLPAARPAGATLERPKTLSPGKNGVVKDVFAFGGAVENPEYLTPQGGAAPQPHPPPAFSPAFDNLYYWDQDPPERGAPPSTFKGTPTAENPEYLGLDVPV

| IC50 [1] [µM] | IC50 (SKOV3 cells) [µM] | IC50 (A431 cells) [µM] | Compound |
| --- | --- | --- | --- |
| 61.7 |  |  | CCOC(=O)c1c(C)[nH]c(/C=C2\C(=O)Nc3ccc(Br)cc32)c1CCC(=O)O [Compound 114, 5-(5-Bromo-2-oxo-1,2-dihydroindol-3-ylidenemethyl)-4-(2-carboxyethyl)-2-methyl-1H-pyrrole-3-carboxylic acid ethyl ester] |
| 6.07 |  |  | Cc1cc(CCC(=O)O)c(/C=C2\C(=O)Nc3ccc(Br)cc32)[nH]1 [Compound 116, 3-[2-(5-Bromo-2-oxo-1,2-dihydroindol-3-ylidenemethyl)-5-methyl-1H-pyrrol-3-yl]-propionic acid] |
| 13.8 | 5.5 | 5.4 | COc1c(C(C)C)cc(/C=C2/C(=O)Nc3ccccc32)cc1C(C)C [Example 1, 3-(3,5-Diisopropyl-4-methoxybenzylidene)-1,3-dihydroindol-2-one] |
| 13.7 | 4.8 | 4.5 | COc1c(C(C)C)cc(/C=C2/C(=O)Nc3ccc(Cl)cc32)cc1C(C)C [Example 2, 5-Chloro-3-(3,5-diisopropyl-4-methoxybenzylidene)-1,3-dihydroindol-2-one] |
